Laboratory results: patent US20240317683A1, “METHODS OF TREATING MOOD DISORDERS” (priority 2020, published 2024)
Where a name gives a salt, the structure may show the parent alone. Read-outs that look alike come from different tables or passages of the source.

What was measured:
[1] = Metabolic stability in human liver microsomes (HLM); type: in vitro ADME; details: both sexes, pooled human liver microsomes, pH 7.4, NADPH
Protocol: (§1) HLM Stability. Pooled HLM from adult male and female donors (Corning 452117) were used. Microsomal incubations were carried out in multi-well plates. […] Control incubations were performed by replacing the NADPH-cofactor system with PBS. Test compounds (1 μM, final solvent concentration 1.0%) were incubated with microsomes at 37° C. with constant shaking. Six time points over 60 minutes were analyzed, with 60 μL aliquots of the reaction mixture being drawn at each time point.

[2] = Metabolic stability in mouse liver microsomes (MLM); type: in vitro ADME, CD-1 mice; details: CD-1, mouse, pooled mouse liver microsomes, pH 7.4, NADPH
Protocol: as §1, with “MLM” for “HLM”, “CD-1 mice (BIOIVT M00501)” for “adult male and female donors (Corning 452117)”

[3] = target: 5-HT2A (Homo sapiens (Human), UniProt P28223); experiment: FLIPR Ca2+ flux agonist assay, 5-HT2A; type: cell-based; details: for 5-HT2A % Act @ Max Dose / EC50: HEK293
Protocol: (§2) A solution of 250 mM probenecid in 1 mL FLIPR assay buffer was prepared fresh. This was combined with a fluorescent dye (Fluo-4 Direct™) to make a final assay concentration of 2.5 mM. […] The fluorescent dye was then added to the assay plate along with assay buffer to a final volume of 40 μL. The cell plate was incubated for 50 min at 37° C. and 5% CO2 and placed into the FLIPR Tetra along with the compound plate. 10 μL of references and compounds were then transferred from the compound plate into the cell plate and the fluorescent signal was read.

[4] = target: 5-HT2B (Homo sapiens (Human), UniProt P41595); experiment: FLIPR Ca2+ flux agonist assay, 5-HT2B; type: cell-based; details: for 5-HT2B % Act @ Max Dose: Ca2+ flux, HEK293
Chain of 5-HT2B (P41595 whole entry, looked up, species assumed): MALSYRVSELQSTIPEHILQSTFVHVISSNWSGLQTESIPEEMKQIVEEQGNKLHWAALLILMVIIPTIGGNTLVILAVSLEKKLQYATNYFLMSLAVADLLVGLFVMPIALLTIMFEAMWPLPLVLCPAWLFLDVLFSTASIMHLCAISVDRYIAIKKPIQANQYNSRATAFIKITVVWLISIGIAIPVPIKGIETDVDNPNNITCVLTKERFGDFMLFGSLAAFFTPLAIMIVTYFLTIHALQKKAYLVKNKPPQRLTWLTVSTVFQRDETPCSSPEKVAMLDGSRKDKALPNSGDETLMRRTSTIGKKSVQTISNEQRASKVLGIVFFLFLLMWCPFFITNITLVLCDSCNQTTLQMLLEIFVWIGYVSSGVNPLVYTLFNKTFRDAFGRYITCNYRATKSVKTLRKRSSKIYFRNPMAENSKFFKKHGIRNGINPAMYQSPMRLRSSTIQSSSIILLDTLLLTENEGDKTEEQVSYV
Protocol: as §2

[5] = target: 5-HT1A (Homo sapiens (Human), UniProt P08908); experiment: FLIPR Ca2+ flux agonist assay, 5-HT1A; type: cell-based
Protocol: as §2

[6] = Stability in mouse brain homogenate; type: in vitro ADME, CD-1 mice; details: for half-life at 1 μM: male, CD-1; for half-life at 1 μM / % Compound Remaining (after 120 min): mouse brain homogenate, 37° C., 1 μM
Protocol: Mouse Brain Homogenate Stability. Frozen mouse brain homogenate (pooled from male CD-1 mice, BioreclamationIVT, MSE00BRAINMZA) was thawed in a water bath at 37° C. immediately prior to use. Positive controls and test compounds (final concentration in incubation medium=1 μM for test compounds and 2 μM for controls, all with 2% DMSO) were incubated in duplicate for each time point (0, 10, 30, 60, and 120 min) in the mouse brain homogenate at a total reaction volume of […] at 37° C. At the end of each incubation period, reactions were immediately quenched with 400 μL of acetonitrile containing internal standard (200 ng/mL tolbutamine and 200 ng/ml labetalol) and mixed thoroughly. Plates were then sealed, shaken for 20 min, and centrifuged at 4,000 rpm and 4° C. for 20 min. Aliquots of 50 μL of each supernatant were diluted into 100 μL of water and the mixtures were then shaken again for 10 min.

[7] = Pharmacokinetics in mice, plasma; type: in vivo, C57BL/6 mice; details: for AUC(0-t) / clearance / half-life / Cmax / Tmax: male, C57BL/6, mouse plasma; for F: mouse, based on plasma AUC0-last
Protocol: Animals. Male C57BL/6 mice, aged 8-12 weeks, were used in these studies. Four mice were housed in each cage. Temperature and humidity were maintained at 22±3° C. and 30-70%, respectively, and illumination was controlled to give a 12 h light and 12 h dark cycle. Temperature and humidity were recorded by an auto-controlled data logger system. All animals were provided laboratory rodent diet. Reverse osmosis water treated with ultraviolet light was provided ad libitum. Animals were randomly assigned to treatment groups.
Drugs. Compounds 4 and 5 were prepared as described above. All other compounds were commercially obtained. Test compounds were used as the hydrogen fumarate (1 and 2) or hydrochloride (3, 4, and 5) salts and were dissolved in a vehicle consisting of normal saline. They were then administered intravenously (IV) via the tail vein, subcutaneously (SC), or orally (PO) via gavage at a dose of 1 or 10 mg/kg (calculated based on the free base) and at a volume of 5 ml/kg body weight.
Sample Collection and Bioanalysis. Blood samples (approximately 60 μL) were collected under light isoflurane anesthesia (Surgivet®) from the retro orbital plexus at 0.08, 0.25, 0.5, 1, 2, 4, 8, and 24 h (4 animals per time point). Immediately after blood collection, plasma was harvested by centrifugation at 4,000 rpm for 10 min at 4° C. and samples were stored at −70±10° C. until bioanalysis. Following blood collection, animals were immediately sacrificed, the abdominal vena-cava was cut open, and the whole body was perfused from the heart using 10 mL of normal saline, and brain samples were collected from all animals. After isolation, brain samples were rinsed three times in ice-cold normal saline (for 5-10 seconds/rinse using ˜5-10 mL normal saline in disposable petri dish for each rinse) and dried on blotting paper. Brain samples were homogenized using ice-cold phosphate-buffered saline (pH 7.4). Total homogenate volume was three times the tissue weight. All homogenates were stored at −70±10° C. until bioanalysis. For bioanalysis, 25 μL aliquots of plasma/brain study samples or spiked plasma/brain calibration standards were added to individual pre-labeled micro-centrifuge tubes followed by 100 μL of an internal standard solution (glipizide, 500 ng/ml in acetonitrile) except for blanks, where 100 μL of acetonitrile was added. Samples were vortexed for 5 minutes and then centrifuged for 10 minutes at 4,000 rpm at 4° C. Following centrifugation, 100 μL of each clear supernatant was transferred to a 96 well plate and analyzed with a fit-for-purpose LC-MS/MS method, with authentic samples of each analyte used for calibration and identification.
Data Analysis. Pharmacokinetic parameters were estimated using the non-compartmental analysis tool of Phoenix® WinNonlin software (Ver 8.0).

[8] = IV, 10 mg/kg, read-out: Cmax (C0 back-extrapolated to t = 0)

Structure (SMILES) | half-life at 1 μM [1] [min] | half-life at 1 μM [2] [min] | microsomal CLint at 1 μM [2] [µL/min/mg] | 5-HT2A % Act @ Max Dose [3] [%] | 5-HT2B % Act @ Max Dose [4] [%] | 5-HT1A % Act @ Max Dose ([5]; Ca2+ flux, CHO cells) [%] | stability in mouse brain homogenate (in words) [6] | half-life at 1 μM [6] [min] | % Compound Remaining (after 120 min) [6] [%] | microsomal CLint at 1 μM [1] [µL/min/mg] | selectivity for 5-HT2A over 5-HT2B (in words) [3] | EC50 [5] [µM] | EC50 [3] [µM] | AUC(0-t) ([7]; SC, 10 mg/kg) [ng·h/mL] | Tmax ([7]; SC, 10 mg/kg) [min] | half-life ([7]; SC, 10 mg/kg) [min] | Cmax ([7]; SC, 10 mg/kg, read-out: Cmax) [ng/mL] | also measured
CN(C)CCc1c[nH]c2ccccc12 [DMT, N,N-dimethyltryptamine, reference compound] | 7 | 69.1 | 20.1 | 93.4 | 10.4 | 68.1 | highly unstable | 6.4 | 0.0 | – | – | – | – | – | – | – | – | –
CCN(C)CCc1c[nH]c2ccccc12 [Compound 2, methylethyltryptamine] | 126 | 102 | 13.6 | 36.2 | 22.5 | 73.6 | intermediate stability | 123 | 47.8 | 11.2 | highly selective | 59.5 | – | – | – | – | – | AUC(0-t) ([7]; IV, 10 mg/kg): 545 ng·h/mL; clearance ([7]; IV, 10 mg/kg): 304 mL/min/kg; half-life ([7]; IV, 10 mg/kg): 88.8 min; Cmax [7, 8]: 963 ng/mL; AUC(0-t) ([7]; oral, 10 mg/kg): 238 ng·h/mL; Tmax ([7]; oral, 10 mg/kg): 15 min; half-life ([7]; oral, 10 mg/kg): 82.2 min; Cmax ([7]; oral, 10 mg/kg, read-out: Cmax): 102 ng/mL; F ([7]; oral, 10 mg/kg): 44%; Emax [3]: 36.2%
CCCN(CC)CCc1c[nH]c2ccc(F)cc12 [Compound 3, N-ethyl-N-(2-(5-fluoro-1H-indol-3-yl)ethyl) propan-1-amine hydrochloride] | 13 | 5.5 | 250 | 104.1 | 64.64 | 88.34 | high stability | > 289 | 76.7 | 106 | little selectivity | 19.6 | 0.00553 | – | – | – | – | EC50 [4]: 0.0154 µM
CN(C)CCc1c[nH]c2ccc(F)cc12 [Compound 5, 2-(5-fluoro-1H-indol-3-yl)-N,N-dimethylethan-1-amine hydrochloride] | 4.6 | 27.3 | 50.8 | – | – | – | highly unstable | 3.1 | 0.0 | 300 | – | – | – | 247 | 15 | 16.2 | 363 | AUC(0-t) ([7]; SC, 1 mg/kg): 11 ng·h/mL; Tmax ([7]; SC, 1 mg/kg): 4.8 min; Cmax ([7]; SC, 1 mg/kg, read-out: Cmax): 41.6 ng/mL
CCN(C)CCc1c[nH]c2ccc(F)cc12 [Compound 4, N-ethyl-2-(5-fluoro-1H-indol-3-yl)-N-methylethan-1-amine hydrochloride] | 47.9 | 47.6 | 29.1 | 87.6 | 0.79 | 83.01 | intermediate stability | 54.3 | 20.7 | 28.9 | highly selective | 16.9 | 0.0206 | 1170 | 30 | 54 | 631 | AUC(0-t) ([7]; IV, 10 mg/kg): 1790 ng·h/mL; clearance ([7]; IV, 10 mg/kg): 92.8 mL/min/kg; half-life ([7]; IV, 10 mg/kg): 51.6 min; Cmax [7, 8]: 2910 ng/mL; AUC(0-t) ([7]; SC, 1 mg/kg): 57.5 ng·h/mL; Tmax ([7]; SC, 1 mg/kg): 4.8 min; half-life ([7]; SC, 1 mg/kg): 27 min; Cmax ([7]; SC, 1 mg/kg, read-out: Cmax): 83.2 ng/mL; AUC(0-t) ([7]; oral, 10 mg/kg): 623 ng·h/mL; Tmax ([7]; oral, 10 mg/kg): 15 min; half-life ([7]; oral, 10 mg/kg): 80.4 min; Cmax ([7]; oral, 10 mg/kg, read-out: Cmax): 272 ng/mL; F ([7]; SC, 1 mg/kg): 32%; F ([7]; SC, 10 mg/kg): 65%; F ([7]; oral, 10 mg/kg): 35%; EC50 [4]: > 10 µM
CN(C)CCc1c[nH]c2cccc(O)c12 [Psilocin, psilocin, reference compound] | 110 | 127 | 10.9 | – | 1.44 | 0.720 | high stability | > 289 | 97.6 | – | – | > 3.16 | – | – | – | – | – | AUC(0-t) ([7]; IV, 1 mg/kg): 79.9 ng·h/mL; clearance ([7]; IV, 1 mg/kg): 204 mL/min/kg; half-life ([7]; IV, 1 mg/kg): 66 min; Cmax ([7]; IV, 1 mg/kg, read-out: Cmax (C0 back-extrapolated to t = 0)): 195 ng/mL; AUC(0-t) ([7]; oral, 1 mg/kg): 51.1 ng·h/mL; Tmax ([7]; oral, 1 mg/kg): 10.2 min; half-life ([7]; oral, 1 mg/kg): 118 min; Cmax ([7]; oral, 1 mg/kg, read-out: Cmax): 85.9 ng/mL; F ([7]; oral, 1 mg/kg): 64%
CCN(C)CCc1c[nH]c2cccc(O)c12 [Compound 6] | > 145 | > 145 | < 9.6 | 103.0 | 1.09 | 72.96 | intermediate stability | 45.8 | 16.7 | < 9.6 | – | – | 0.0151 | 1410 | 4.8 | 66 | 1160 | EC50 ([5]; Ca2+ flux, CHO cells, read-out: 5-HT1A EC50): 14.7 µM
